# Experimental data: patent publication US10428080B2, “TBK/IKK inhibitor compounds and uses thereof” (Merck Patent GmbH, priority 2015, dated 2019)
# Where a name gives a salt, the structure may show the parent alone.
# Legend:
# TBK1 = target: T1, TBK1 (Homo sapiens, UniProt Q9UHD2); assay: TBK Biochemical Assay; conditions: read-out: TBK1 IC50
# T1 sequence (Q9UHD2 1-729): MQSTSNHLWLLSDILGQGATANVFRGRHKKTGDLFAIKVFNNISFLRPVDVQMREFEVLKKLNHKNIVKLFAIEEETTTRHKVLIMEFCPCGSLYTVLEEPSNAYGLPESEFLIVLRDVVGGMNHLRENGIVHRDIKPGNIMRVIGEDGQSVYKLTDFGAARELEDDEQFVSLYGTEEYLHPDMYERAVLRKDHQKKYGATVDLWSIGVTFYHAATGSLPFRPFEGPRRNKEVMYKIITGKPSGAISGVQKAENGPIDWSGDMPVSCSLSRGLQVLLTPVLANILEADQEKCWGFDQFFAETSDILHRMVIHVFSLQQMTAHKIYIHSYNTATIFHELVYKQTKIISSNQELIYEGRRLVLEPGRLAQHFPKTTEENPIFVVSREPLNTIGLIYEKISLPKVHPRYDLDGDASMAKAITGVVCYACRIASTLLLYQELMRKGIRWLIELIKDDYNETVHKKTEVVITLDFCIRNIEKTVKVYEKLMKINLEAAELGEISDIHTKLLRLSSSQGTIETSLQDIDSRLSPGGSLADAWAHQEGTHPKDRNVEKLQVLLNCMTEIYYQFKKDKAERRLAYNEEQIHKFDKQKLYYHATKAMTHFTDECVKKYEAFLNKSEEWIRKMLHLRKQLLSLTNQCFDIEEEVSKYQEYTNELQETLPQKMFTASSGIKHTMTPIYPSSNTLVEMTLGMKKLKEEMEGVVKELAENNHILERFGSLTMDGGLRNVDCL
# How it was run: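 TBK1 enzyme and substrate incubated with compounds (10-point 1:4 dilution, top 30 uM final, 1% DMSO) for 90 min at 25° C, then stopped. Substrate/product peaks read by microfluidic mobility-shift (Caliper LabChip); 10 uM staurosporine as full-inhibition control.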
# IKKε = target: T2, IKKε (Homo sapiens, UniProt Q14164); assay: IKKe Biochemical Assay; conditions: read-out: IKKε IC50
# T2 sequence (Q14164 1-716): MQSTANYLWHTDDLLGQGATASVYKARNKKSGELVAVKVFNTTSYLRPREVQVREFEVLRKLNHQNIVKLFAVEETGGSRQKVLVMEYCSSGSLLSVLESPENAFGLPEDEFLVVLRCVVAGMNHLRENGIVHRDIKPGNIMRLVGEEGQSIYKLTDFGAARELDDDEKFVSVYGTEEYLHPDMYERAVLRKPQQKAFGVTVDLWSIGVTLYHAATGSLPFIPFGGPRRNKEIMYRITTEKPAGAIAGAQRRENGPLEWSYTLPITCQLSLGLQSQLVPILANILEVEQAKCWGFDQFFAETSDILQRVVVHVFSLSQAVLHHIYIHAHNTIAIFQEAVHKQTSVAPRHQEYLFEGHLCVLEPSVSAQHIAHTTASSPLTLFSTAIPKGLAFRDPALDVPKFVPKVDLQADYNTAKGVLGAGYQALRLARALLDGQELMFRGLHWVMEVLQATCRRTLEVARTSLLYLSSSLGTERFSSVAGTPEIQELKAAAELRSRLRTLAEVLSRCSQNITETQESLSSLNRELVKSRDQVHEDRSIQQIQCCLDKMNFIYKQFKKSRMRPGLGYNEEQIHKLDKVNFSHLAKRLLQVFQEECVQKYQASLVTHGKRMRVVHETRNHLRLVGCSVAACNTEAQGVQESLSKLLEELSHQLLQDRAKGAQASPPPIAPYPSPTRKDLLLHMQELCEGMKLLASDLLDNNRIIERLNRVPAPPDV
# Protocol: Test compounds were transferred into Labcyte polypropylene 384 well plates (P055-25) and diluted to 3 mM using DMSO. 3 mM test compounds were dispensed using Labcyte ECHO dose response module into (Greiner 784075 plates (columns 3-12 and 13-22, 10 point 1:4) so that high concentration was 30 uM final. 100 uM of a reference compound (1 uM final high concentration). Backfilling was performed if necessary so that all wells contain 1% DMSO final: […]
# add 75 nl DMSO/well into columns 1, 2 and 24 using Labcyte Echo. add 75 nl 1.0 mM staurosporine/well into column 23 using Labcyte Echo (10 uM final) add 4.5 ul enzyme/well using multidrop dispenser add 3 ul substrate/well using multidrop dispenser incubate at 25° C. for 90 min. add 7.5 ul 2× stop buffer read on labchip ez reader II using IKKε. job
# Raw data files were opened in the Caliper LabChip Reviewer program (Version 3.0.265.0 SP2) and peak assignments were adjusted to reflect “substrate first” with the software's post-run analysis options. A spline-fit baseline was applied using the software's analysis algorithm.
Structure (SMILES),IC50 (TBK1) [nM],IC50 (IKKε) [nM]
"COc1cc(C(=O)NC2CCOCC2)ccc1-c1cc2nccc(-c3ccc(OC4CCOCC4)c(C#N)c3)c2o1 [Compound 83, 4-{7-[3-Cyano-4-(tetrahydro-pyran-4-yloxy)-phenyl]-furo[3,2-b]pyridin-2-yl}-3-methoxy-N-(tetrahydro-pyran-4-yl)-benzamide]",< 100,< 100
"COc1cc(C(=O)N2CC3CC2CO3)ccc1-c1cc2nccc(-c3ccc(NC4CCOCC4)c(C#N)c3)c2o1 (stereo not shown) [Compound 85, 5-{2-[2-Methoxy-4-(2-oxa-5-aza-bicyclo[2.2.1]heptane-5-carbonyl)-phenyl]-furo[3,2-b]pyridin-7-yl}-2-(tetrahydro-pyran-4-ylamino)-benzonitrile]",< 100,< 100
"COc1cc(C(=O)NC2(C)CCNC2)ccc1-c1cc2nccc(-c3ccc(OC4CCOCC4)c(C#N)c3)c2o1 (stereo not shown) [Compound 86, 4-{7-[3-Cyano-4-(tetrahydro-pyran-4-yloxy)-phenyl]-furo[3,2-b]pyridin-2-yl}-3-methoxy-N-(3-methyl-pyrrolidin-3-yl)-benzamide hydrochloride]",< 100,< 100
"COc1cc(C(=O)N2CCCC2C(F)F)ccc1-c1cc2nccc(-c3ccc(OC4CCOCC4)c(C#N)c3)c2o1 (stereo not shown) [Compound 89, 5-{2-[4-(2-Difluoromethyl-pyrrolidine-1-carbonyl)-2-methoxy-phenyl]-furo[3,2-b]pyridin-7-yl}-2-(tetrahydro-pyran-4-yloxy)-benzonitrile]",< 100,< 100
"COc1cc(C(=O)N2C3CCC2COC3)ccc1-c1cc2nccc(-c3ccc(NC4CCOCC4)c(C#N)c3)c2o1 [Compound 94, 5-{2-[2-Methoxy-4-(3-oxa-8-aza-bicyclo[3.2.1]octane-8-carbonyl)-phenyl]-furo[3,2-b]pyridin-7-yl}-2-(tetrahydro-pyran-4-ylamino)-benzonitrile]",< 100,< 100
"COc1cc(C(=O)N2CC[C@@H](O)C2)ccc1-c1cc2nccc(-c3ccc(NC4CCOCC4)c(C#N)c3)c2o1 [Compound 95, 5-{2-[4-((R)-3-Hydroxy-pyrrolidine-1-carbonyl)-2-methoxy-phenyl]-furo[3,2-b]pyridin-7-yl}-2-(tetrahydro-pyran-4-ylamino)-benzonitrile]",< 100,< 100
COc1cc(C(=O)N2CC3CCC(O)C3C2)ccc1-c1cc2nccc(-c3ccc(NC4CCOCC4)c(C#N)c3)c2o1 (stereo not shown) [Compound 96],< 100,< 100
"COc1cc(C(=O)N(C)C)ccc1-c1cc2nccc(-c3ccc(OC4CCN(C)CC4(F)F)c(C#N)c3)c2o1 (stereo not shown) [Compound 97, 4-{7-[3-Cyano-4-(3,3-difluoro-1-methyl-piperidin-4-yloxy)-phenyl]-furo[3,2-b]pyridin-2-yl}-3-methoxy-N,N-dimethyl-benzamide]",< 100,< 100
"COc1cc(C(=O)N2CC3CCCC3C2)ccc1-c1cc2nccc(-c3ccc(OC4CCOCC4)c(C#N)c3)c2o1 (stereo not shown) [Compound 99, 5-{2-[4-(Hexahydro-cyclopenta[c]pyrrole-2-carbonyl)-2-methoxy-phenyl]-furo[3,2-b]pyridin-7-yl}-2-(tetrahydro-pyran-4-yloxy)-benzonitrile]",< 100,< 100
"CNC(=O)c1ccc(-c2cc3nccc(-c4ccc(OC5CCOCC5)c(C#N)c4)c3o2)c(OC)c1 [Compound 100, 4-{7-[3-Cyano-4-(tetrahydro-pyran-4-yloxy)-phenyl]-furo[3,2-b]pyridin-2-yl}-3-methoxy-N-methyl-benzamide]",< 100,< 100
"COc1cc(C(=O)NC2CCOCC2F)ccc1-c1cc2nccc(-c3ccc(OC4CCOCC4)c(C#N)c3)c2o1 (stereo not shown) [Compound 102, 4-{7-[3-Cyano-4-(tetrahydro-pyran-4-yloxy)-phenyl]-furo[3,2-b]pyridin-2-yl}-N-(3-fluoro-tetrahydro-pyran-4-yl)-3-methoxy-benzamide]",< 100,< 100
"COc1cc(C(=O)N2CC[C@H](O)C2)ccc1-c1cc2nccc(-c3ccc(NC4CCOCC4)c(C#N)c3)c2o1 [Compound 103, 5-{2-[4-((S)-3-Hydroxy-pyrrolidine-1-carbonyl)-2-methoxy-phenyl]-furo[3,2-b]pyridin-7-yl}-2-(tetrahydro-pyran-4-ylamino)-benzonitrile]",< 100,< 100
"N#Cc1cc(-c2ccnc3cc(-c4ccc(C(=O)O)cc4)oc23)ccc1N1CC[C@H](F)C1 [Compound 107, 4-{7-[3-Cyano-4-((S)-3-fluoro-pyrrolidin-1-yl)-phenyl]-furo[3,2-b]pyridin-2-yl}-benzoic acid]",< 100,< 100
"COc1cc(C(=O)N(C)C)ccc1-c1cc2nccc(-c3ccc(OC4(C(F)(F)F)CCNC4)c(C#N)c3)c2o1 (stereo not shown) [Compound 113, 4-{7-[3-Cyano-4-(3-trifluoromethyl-pyrrolidin-3-yloxy)-phenyl]-furo[3,2-b]pyridin-2-yl}-3-methoxy-N,N-dimethyl-benzamide]",< 100,< 100
"COc1cc(C(=O)N2CCC3(CCC3)C2)ccc1-c1cc2nccc(-c3ccc(OC4CCOCC4)c(C#N)c3)c2o1 [Compound 114, 5-{2-[4-(6-Aza-spiro[3.4]octane-6-carbonyl)-2-methoxy-phenyl]-furo[3,2-b]pyridin-7-yl}-2-(tetrahydro-pyran-4-yloxy)-benzonitrile]",< 100,< 100
"COc1cc(C(=O)N(C)C)ccc1-c1cc2nccc(-c3ccc(O[C@@H]4CCNC4)c(C#N)c3)c2o1 [Compound 115, 4-{7-[3-Cyano-4-((R)-pyrrolidin-3-yloxy)-phenyl]-furo[3,2-b]pyridin-2-yl}-3-methoxy-N,N-dimethyl-benzamide]",< 100,< 100
"COc1cc(C(=O)N(C)C)ccc1-c1cc2nccc(-c3ccc(O[C@H]4CCNC4)c(C#N)c3)c2o1 [Compound 121, 4-{7-[3-Cyano-4-((S)-pyrrolidin-3-yloxy)-phenyl]-furo[3,2-b]pyridin-2-yl}-3-methoxy-N,N-dimethyl-benzamide]",< 100,< 100
N#Cc1cc(-c2ccnc3cc(-c4ccc(N)cc4)oc23)ccc1OC1CCOCC1 [Compound 126],< 100,< 100
"COc1cc(C(=O)N(C)C)ccc1-c1cc2nccc(-c3ccc(OC4CNC4)c(C#N)c3)c2o1 [Compound 128, 4-{7-[4-(Azetidin-3-yloxy)-3-cyano-phenyl]-furo[3,2-b]pyridin-2-yl}-3-methoxy-N,N-dimethyl-benzamide]",< 100,< 100
"COc1cc(C(=O)NC2CCOCC2F)ccc1-c1cc2nccc(-c3ccc(NC4CCOCC4)c(C#N)c3)c2o1 (stereo not shown) [Compound 132, 4-{7-[3-Cyano-4-(tetrahydro-pyran-4-ylamino)-phenyl]-furo[3,2-b]pyridin-2-yl}-N-(3-fluoro-tetrahydro-pyran-4-yl)-3-methoxy-benzamide]",< 100,< 100
